Test results reported in the supplement of paper PMC10307832.

What was measured:
Assay in all cases: relative viability (nuclei count vs DMSO), 5 days (fraction); higher = more cells survive
[1] = compound: CC1CC(=O)N(C2=CN=C(N=C2N1C3CCCC3)NC4=C(C=C(C=C4)C(=O)NC5CCN(CC5)C)OC)C [NPK76-II-72-1] + CC(=O)c1c(C)c2cnc(Nc3ccc(N4CCNCC4)cn3)nc2n(C2CCCC2)c1=O [Palbociclib] (partner 0.5 µM)
How it was run: (§1)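 Each reported value is a median over duplicate plates. It expresses relative viability: treated-well nuclei count divided by vehicle-well nuclei count. Lung cancer cell lines in 1536-well plates were dosed by pin tool a day after seeding, alone with one drug or with a fixed anchor-drug dose plus five library-drug doses (not always all listed) in √10 steps, and nuclei were counted after 5 days.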

[2] = compound: CC1CC(=O)N(C2=CN=C(N=C2N1C3CCCC3)NC4=C(C=C(C=C4)C(=O)NC5CCN(CC5)C)OC)C [NPK76-II-72-1] + CC(=O)Nc1cccc(-n2c(=O)n(C3CC3)c(=O)c3c(Nc4ccc(I)cc4F)n(C)c(=O)c(C)c32)c1 [Trametinib] (partner 0.02 µM)
How it was run: as §1

[3] = compound: CC1CC(=O)N(C2=CN=C(N=C2N1C3CCCC3)NC4=C(C=C(C=C4)C(=O)NC5CCN(CC5)C)OC)C [NPK76-II-72-1] + C[C@]1(O)C[C@@H](c2nc(-c3ccc4ccc(-c5ccccc5)nc4c3)c3c(N)nccn32)C1 [Linsitinib] (partner 1 µM)
How it was run: as §1

[4] = compound: CC1CC(=O)N(C2=CN=C(N=C2N1C3CCCC3)NC4=C(C=C(C=C4)C(=O)NC5CCN(CC5)C)OC)C [NPK76-II-72-1] + CC1(C)CCC(c2ccc(Cl)cc2)=C(CN2CCN(c3ccc(C(=O)NS(=O)(=O)c4ccc(N[C@H](CCN5CCOCC5)CSc5ccccc5)c(S(=O)(=O)C(F)(F)F)c4)cc3)CC2)C1 [Navitoclax] (partner 0.5 µM)
How it was run: as §1

Cell Line	relative viability ([1]; first compound 0.01 µM)	relative viability ([1]; first compound 0.1 µM)	relative viability ([1]; first compound 0.3162 µM)	relative viability ([1]; first compound 1 µM)	relative viability ([2]; first compound 0.01 µM)	relative viability ([2]; first compound 0.1 µM)	relative viability ([2]; first compound 0.3162 µM)	relative viability ([2]; first compound 1 µM)	relative viability ([3]; first compound 0.01 µM)	relative viability ([3]; first compound 0.03162 µM)	relative viability ([3]; first compound 0.1 µM)	relative viability ([3]; first compound 0.3162 µM)	relative viability ([3]; first compound 1 µM)	relative viability ([4]; first compound 0.01 µM)	relative viability ([4]; first compound 0.03162 µM)	relative viability ([4]; first compound 0.1 µM)	relative viability ([4]; first compound 0.3162 µM)	relative viability ([4]; first compound 1 µM)	relative viability ([1]; first compound 0.03162 µM)	relative viability ([2]; first compound 0.03162 µM)
PC-3 [JPC-3]	0.562	0.519	0.549	0.597	0.701	0.705	0.737	0.703	0.927	0.91	0.936	0.935	0.963	0.742	0.806	0.735	0.672	0.848		
NCI-H838	0.209	0.217	0.228	0.228	0.485	0.513	0.523	0.578	0.935	1.05	1.11	1.01	1.03	1.11	1.19	1.19	1.09	1.11	0.2	0.575
COR-L 105	0.389	0.379	0.439	0.469	0.43	0.491	0.424	0.435	1.01	0.936	1.09	0.738	1.13	0.801	0.742	0.799	0.717	0.761	0.417	0.456
NCI-H2405	0.528	0.514	0.514	0.561	0.662	0.601	0.59	0.702	0.88	1.01	0.905	0.819	1.08	0.834	0.965	0.806	0.844	1.17	0.554	0.618
NCI-H1395	0.627	0.621	0.661	0.616	1.09	1	1.07	1.06	1.08	1.17	1.22	1.13	1.22	0.994	1.14	1.24	1.46	1.25	0.621	1.01
NCI-H1915	0.508	0.529	0.502	0.536	0.286	0.294	0.313	0.295	1.11	1.1	1.11	1.07	1.14	0.749	0.795	0.786	0.736	0.826	0.606	0.307
CAL-12T	0.334	0.517	0.404	0.491	0.325	0.362	0.306	0.37	0.721	1.07	0.737	0.736	0.808	1.15	1.32	1.22	1.02	1.18	0.498	0.346
LXF-289	0.594	0.562	0.577	0.633	0.71	0.644	0.703	0.68	0.931	0.977	0.921	0.925	1	0.877	0.964	0.954	0.88	0.941	0.58	0.691
NCI-H460	0.157	0.225	0.121	0.219	0.271	0.141	0.123	0.174	0.721	0.787	0.842	0.762	0.895	1.17	1.45	1.19	1.18	1.23	0.105	0.14
NCI-H1944	0.335	0.305	0.301	0.376	0.372	0.423	0.351	0.408	1.16	1.09	1.21	1.06	1.28	0.997	1.02	1.05	0.971	1.06	0.35	0.413
NCI-H2009	0.178	0.213	0.262	0.2	0.292	0.286	0.335	0.265	1.18	1.18	1.08	1.2	1.15	1.11	1.28	1.1	1.14	1.17	0.195	0.245
201T	0.379	0.348	0.356	0.364	0.716	0.709	0.689	0.716	1.01	0.969	1.06	1.06	1.09	1.18	1.18	1.23	1.2	1.19	0.385	0.701
NCI-H23	0.537	0.412	0.501	0.6	0.361	0.271	0.342	0.38	0.546	0.701		0.592	0.552	0.774	1.08		0.675	0.784	0.504	0.424
LOU-NH91	0.538	0.496	0.52	0.528	0.76	0.777	0.739	0.829	0.941	0.932	0.984	0.681	1.04	0.635	0.66	0.666	0.517	0.833	0.52	0.751
NCI-H2085	0.475	0.464	0.489	0.491	0.505	0.532	0.528	0.541	0.914	0.997	0.934	0.87	0.923	1.11	1.12	1.06	1.06	1.19	0.445	0.522
COR-L23	0.264	0.314	0.29	0.342	0.588	0.671	0.497	0.65	0.869	0.918	0.898	0.908	1.04	0.823	0.969	0.92	0.995	1.03	0.304	0.679
BEN	0.432	0.45	0.509	0.48	1.15	1.13	0.854	1.08	0.946	1.01	0.87	0.881	0.879	0.0828	0.0731	0.0563	0.0637	0.063	0.478	0.945
LK-2	0.624	0.668	0.653	0.565	0.767	0.584	0.609	0.69	0.543	0.69	0.729	0.415	0.743	0.769	0.83	0.961	0.723	0.879	0.636	0.65
NCI-H322M	0.485	0.48	0.482	0.47	0.531	0.472	0.483	0.557	0.853	1.1	0.805	0.961	0.976	1.19	1.2	1.18	1.24	1.32	0.492	0.492
NCI-H520	0.235	0.267	0.26	0.247	0.646	0.676	0.688	0.769	0.753	0.83	0.804	0.922	1.07	0.927	1.05	1.01	1.04	1.03	0.24	0.687
NCI-H1666	0.64	0.652	0.6	0.67	0.851	0.847	0.732	1.05	0.78	0.815	0.783	0.8	0.79	0.917	0.858	0.961	0.722	1.06	0.62	0.859
NCI-H1993	0.629	0.616	0.563	0.682	0.551	0.624	0.57	0.482	0.728	0.768	0.576	0.657	0.778	1.05	0.969	0.884	0.706	1.01	0.647	0.549
NCI-H1975	0.548	0.593	0.416	0.676	0.348	0.303	0.323	0.401	0.956	0.921	0.913	1.01	1.03	0.956	1.05	1.04	0.993	1.26	0.548	0.329
HCC-44	0.982	0.993	0.935	1.01	1.06	0.95	0.992	0.988	0.634	0.701	0.635	0.681	0.716	0.997	0.969	0.915	0.919	1.11	1.08	1.27
